Structures are written as SMILES. pKi: −log10 of the molar value. Like-named read-outs stand apart in the source and are kept apart here.

Results on two compounds are retold here after PMC6230509 (Neuropharmacology, 2018).

In one assay the target is H3 (Cavia porcellus, UniProt Q9JI35). The assay can be described thus: NIMH PDSP radioligand competition binding, H3. Set-up: species or system Guinea pig.
For the next assay, the target named is T1, 5-HT2C (Homo sapiens, UniProt P28335).
T1 sequence (P28335 33-458): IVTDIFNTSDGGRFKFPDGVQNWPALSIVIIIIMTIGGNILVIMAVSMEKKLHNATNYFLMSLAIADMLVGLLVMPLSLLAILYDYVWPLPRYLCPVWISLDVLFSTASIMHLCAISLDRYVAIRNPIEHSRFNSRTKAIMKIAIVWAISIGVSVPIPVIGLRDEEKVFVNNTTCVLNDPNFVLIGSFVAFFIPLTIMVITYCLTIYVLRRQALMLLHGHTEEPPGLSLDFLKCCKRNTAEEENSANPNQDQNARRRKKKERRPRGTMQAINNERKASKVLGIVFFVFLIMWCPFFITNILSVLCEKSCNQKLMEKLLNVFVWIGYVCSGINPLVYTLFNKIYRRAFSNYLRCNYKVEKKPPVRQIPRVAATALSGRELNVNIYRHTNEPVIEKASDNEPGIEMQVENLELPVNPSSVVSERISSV
The experiment in a line: NIMH PDSP radioligand competition binding, 5-HT2C.

The target in the next assay is 5-HT7 (Homo sapiens, UniProt P34969). The assay can be described thus: NIMH PDSP radioligand competition binding, 5-HT7.
A further assay has as its target T2, α2A (Homo sapiens, UniProt P08913).
T2 sequence (P08913 1-465): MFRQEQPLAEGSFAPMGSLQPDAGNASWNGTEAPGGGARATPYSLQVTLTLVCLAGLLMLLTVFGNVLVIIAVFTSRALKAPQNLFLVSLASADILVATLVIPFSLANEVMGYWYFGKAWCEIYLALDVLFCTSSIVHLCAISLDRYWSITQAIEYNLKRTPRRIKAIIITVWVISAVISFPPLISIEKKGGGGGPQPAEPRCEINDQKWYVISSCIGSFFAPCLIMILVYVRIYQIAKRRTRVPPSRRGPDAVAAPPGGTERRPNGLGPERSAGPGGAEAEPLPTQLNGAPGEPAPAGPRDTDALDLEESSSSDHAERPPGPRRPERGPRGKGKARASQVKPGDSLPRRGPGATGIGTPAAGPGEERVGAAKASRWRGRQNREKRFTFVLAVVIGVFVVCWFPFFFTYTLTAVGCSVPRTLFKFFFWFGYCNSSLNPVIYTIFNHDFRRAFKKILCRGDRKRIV
The assay can be described thus: NIMH PDSP radioligand competition binding, α2A.

The next assay concerns the target T3, σ2 (Rattus norvegicus, UniProt Q5U3Y7).
T3 sequence (Q5U3Y7 1-176): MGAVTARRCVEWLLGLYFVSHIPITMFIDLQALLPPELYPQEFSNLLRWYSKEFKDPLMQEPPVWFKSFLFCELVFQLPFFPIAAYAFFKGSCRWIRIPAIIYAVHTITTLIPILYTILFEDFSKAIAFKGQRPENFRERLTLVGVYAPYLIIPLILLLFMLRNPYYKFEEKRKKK
The experiment in a line: NIMH PDSP radioligand competition binding, σ2.

The target of another assay is D5 (Homo sapiens, UniProt P21918). The assay can be described thus: NIMH PDSP radioligand competition binding, D5. Conditions: for Ki: Binding Affinity (Ki, nM), [3H]SCH23390, cloned human receptor.
Another assay concerns the target T4, α1B (Homo sapiens, UniProt P35368).
T4 sequence (P35368 1-520): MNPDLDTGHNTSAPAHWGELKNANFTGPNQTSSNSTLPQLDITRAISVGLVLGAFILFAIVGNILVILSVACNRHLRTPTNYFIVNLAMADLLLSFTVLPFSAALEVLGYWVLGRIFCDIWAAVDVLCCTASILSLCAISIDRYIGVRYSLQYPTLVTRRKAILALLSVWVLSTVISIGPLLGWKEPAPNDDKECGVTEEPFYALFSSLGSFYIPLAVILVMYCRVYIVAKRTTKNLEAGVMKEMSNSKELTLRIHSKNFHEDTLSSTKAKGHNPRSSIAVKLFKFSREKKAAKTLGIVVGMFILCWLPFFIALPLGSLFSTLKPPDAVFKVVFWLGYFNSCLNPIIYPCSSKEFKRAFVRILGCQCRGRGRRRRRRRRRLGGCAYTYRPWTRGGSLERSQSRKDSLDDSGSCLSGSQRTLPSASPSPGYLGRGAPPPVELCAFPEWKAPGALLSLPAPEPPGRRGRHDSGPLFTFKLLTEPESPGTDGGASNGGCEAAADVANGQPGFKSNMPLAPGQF
The assay can be described thus: NIMH PDSP radioligand competition binding, α1B.

For assay [1], the target named is serotonin transporter (SERT) (Homo sapiens, UniProt P31645). The assay can be described thus: NIMH PDSP radioligand competition binding, SERT.
In assay [2] the test system is head twitch response (5-HT2A receptor-mediated). The experiment in a line: Head twitch response. The conditions noted are these: for activity in the HTR assay (in words): C57BL/6J mice, IP, within the dose range tested; for ED50: Mus musculus, ip. It counts as in vivo, C57BL/6J mice.
Another assay addresses σ1 (Rattus norvegicus, UniProt Q9R0C9). The experiment in a line: NIMH PDSP radioligand competition binding, σ1.
The next assay has as its target κ-opioid receptor (KOR) (Homo sapiens, UniProt P41145). The experiment in a line: NIMH PDSP radioligand competition binding, KOR.
The target of a further assay is μ-opioid receptor (MOR) (Homo sapiens, UniProt P35372). The assay can be described thus: NIMH PDSP radioligand competition binding, MOR.
A further assay addresses 5-HT1B (Homo sapiens, UniProt P28222). The experiment in a line: NIMH PDSP radioligand competition binding, 5-HT1B.
Another assay concerns the target T5, α1D (Homo sapiens, UniProt P25100).
T5 sequence (P25100 1-572): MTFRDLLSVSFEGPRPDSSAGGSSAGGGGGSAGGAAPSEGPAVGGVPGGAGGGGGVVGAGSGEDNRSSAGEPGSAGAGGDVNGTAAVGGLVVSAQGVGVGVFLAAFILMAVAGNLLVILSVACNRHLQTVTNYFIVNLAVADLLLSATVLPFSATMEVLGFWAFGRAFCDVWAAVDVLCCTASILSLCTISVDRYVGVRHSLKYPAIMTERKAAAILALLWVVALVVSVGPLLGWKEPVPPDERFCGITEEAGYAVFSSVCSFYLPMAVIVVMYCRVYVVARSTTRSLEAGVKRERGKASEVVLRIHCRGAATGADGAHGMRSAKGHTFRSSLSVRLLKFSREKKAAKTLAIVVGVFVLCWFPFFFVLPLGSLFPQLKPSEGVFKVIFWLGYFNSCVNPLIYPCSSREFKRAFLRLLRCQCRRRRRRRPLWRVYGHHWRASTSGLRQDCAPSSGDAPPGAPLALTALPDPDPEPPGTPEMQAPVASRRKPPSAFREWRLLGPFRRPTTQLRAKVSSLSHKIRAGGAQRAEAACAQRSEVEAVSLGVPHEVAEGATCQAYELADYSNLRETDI
The assay can be described thus: NIMH PDSP radioligand competition binding, α1D.

With `C=CCN(CC=C)CCc1c[nH]c2cccc(O)c12` [4-HO-DALT, 4-hydroxy-N,N-diallyltryptamine], the pKi is under 5.00 on H3; 5.68 at 5-HT2C; 6.22 on 5-HT7; 5.92 on α2A; under 5.00 at σ2; under 5.00 at α1B. The pKi was 5.28 in [1]; 5.56 at σ1; under 5.00 at κ-opioid receptor (KOR); under 5.00 on μ-opioid receptor (MOR); 5.60 at 5-HT1B; under 5.00 at α1D. Moreover, on D5, the Ki was over 10000 nM. Moreover, the “HTR Counts (mean ± SEM)” value is 4.0 ± 3.3 in assay [2] (0.875 mg/kg IP, duration 5 min); 9.2 ± 3.7 in assay [2] (1.75 mg/kg IP, duration 5 min); 28.6 ± 4.1 in assay [2] (3.5 mg/kg IP, duration 5 min); 31.6 ± 4.9 in assay [2] (7 mg/kg IP, duration 5 min); 24.6 ± 4.7 in [2] (14 mg/kg IP, duration 5 min). Moreover, the “activity in the HTR assay (in words)” value in [2] is listed as “active”. Besides, the results for the ED50 in assay [2] (read-out: ED50 (95% CI) (mg/kg)) and in assay [2] (read-out: ED50 (95% CI) (μmol/kg)) were 2.6 mg/kg and 8.3 µmol/kg, respectively.
As for `C=CCN(CC=C)CCc1c(-c2ccccc2)[nH]c2ccccc12` [2-Ph-DALT, 2-phenyl-N,N-diallyltryptamine], the pKi at H3 was under 5.00; on 5-HT2C, 6.56; on 5-HT7, under 5.00; on α2A it was 7.07; on σ2 it was 6.14; at D5 (Ki value, bound stated) it was over 5.00. Moreover, the negative-log Ki (pKi) at α1B was 6.04; in [1], under 5.00; on σ1, under 5.00; at κ-opioid receptor (KOR) it was 6.23; at μ-opioid receptor (MOR), under 5.00; at 5-HT1B, 6.56. The pKi on α1D was 6.61. Further, the affinity at D5, expressed as Ki, was 2000 nM. Moreover, the “HTR Counts (mean ± SEM)” value in assay [2] (0.875 mg/kg IP, duration 30 min) turned out to be 2.8 ± 0.5; in assay [2] (1.75 mg/kg IP, duration 30 min), 3.6 ± 1.3; in [2] (3.5 mg/kg IP, duration 30 min) it was 1.4 ± 0.5; in assay [2] (7 mg/kg IP, duration 30 min), 2.0 ± 0.5; in [2] (14 mg/kg IP, duration 30 min), 1.2 ± 0.5. Besides, the “activity in the HTR assay (in words)” value in [2] is on record as “abolished activity”; in assay [2] (listed as 2-Phenyl-DALT) it was “did not induce the HTR”.
